Series [1] deals with T1, TrBgl2 (Trichoderma reesei, UniProt O93785). The experiment in a line: MUG cleavage fluorescent kinetic assay (AC50 / Amax / IC50). It counts as biochemical. Here is the method: A fluorescent kinetic assay was performed for library screening of TrBgl2 using 500 µM 4-methylumbelliferyl-β-D-glucopyranoside (MUG) in a total volume of 150 µL per well. Compounds dissolved in DMSO were added to each well to yield a final concentration from 1 to 2 mM. The reactions were performed in 160 mM phosphate–citrate buffer in pH 6.0, initiated by adding 20 µL of the enzyme to give a final concentration of 100 nM and were assayed at 40°C. The fluorescent 4-methylumbelliferyl release was recorded continuously at 355 nm excitation and 460 nm emission for 20 s using a BMG Labtech POLARstar OPTIMA plate reader. Control experiments were performed to evaluate the possibility of interference from the intrinsic fluorescence of compounds in the library by repeating the assay in the absence of the enzyme.
T1 sequence (O93785 entry or part of it): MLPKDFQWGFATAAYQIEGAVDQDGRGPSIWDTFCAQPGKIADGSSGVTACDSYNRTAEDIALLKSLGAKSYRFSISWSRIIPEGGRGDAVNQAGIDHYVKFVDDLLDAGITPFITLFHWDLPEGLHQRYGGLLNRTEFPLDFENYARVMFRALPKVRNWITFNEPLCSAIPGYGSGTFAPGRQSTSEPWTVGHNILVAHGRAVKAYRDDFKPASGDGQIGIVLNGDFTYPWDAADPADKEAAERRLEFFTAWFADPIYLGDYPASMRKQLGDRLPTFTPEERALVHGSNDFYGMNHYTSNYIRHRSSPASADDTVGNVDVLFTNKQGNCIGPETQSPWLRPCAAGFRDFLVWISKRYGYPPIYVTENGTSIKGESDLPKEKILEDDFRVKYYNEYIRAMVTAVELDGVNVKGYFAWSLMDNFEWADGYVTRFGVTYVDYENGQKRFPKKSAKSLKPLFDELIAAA
(§1) Assays were carried out in a 96 well plate (Black Nunc F96 MicroWell Plates) at 40 and 45°C for TrBgl2 and CcBglA, respectively, in 160 mM phosphate–citrate buffer in pH 6.0 and 2.5% DMSO. Reactions were initiated by the addition of 20 µL of protein to a final concentration of 100 nM, followed by 5 s of shaking. The fluorescent 4-methylumbelliferyl release was recorded continuously at 355 nm excitation and 460 nm emission for 20 s using a BMG Labtech POLARstar OPTIMA plate reader. Rates were calculated using GraphPad Prism 5.0 as the slope of the curve of the collected data. Corrections were made to the detected gradients to adjust for the inner filter effect of MUG and convert the gradients into units of µmol min^−1 according to a standard curve for MUG. The initial slopes were fitted to sigmoidal dose-response curves using GraphPad Prism 5.0 and the AC50 values extracted. Inhibition of TrBgl2 by isofagomine (IC50) was determined in similar manner to the AC50 values.

The nature of series [2]: Solubility of compound. It counts as physicochemical.
In series [3] the test system is E367Q TrBgl2. The experiment in a line: Thermal shift assay (TSA). It counts as binding, Trichoderma reesei. On the procedure:
Thermal shift screens were performed in 96-well polypropylene PCR plates (Agilent 401334) with a final volume 25 µL/well. […] Melting data were collected using an Agilent Stratagene Mx3005P rtPCR machine ramping from 25 to 95°C at 30 s per degree. Data were analysed with a combination of the Agilent MxPro software, MTS [16], JTSA (http://paulsbond.co.uk/jtsa) and the DSF analysis spreadsheet in Excel.

The target in series [4] is T1, TrBgl2. In words: Michaelis-Menten and covariation kinetics with MUG. The class given is biochemical. On the procedure: Apparent KM and kcat values were calculated from a Michaelis–Menten curve fit to 9-point substrate titrations at a constant concentration of compounds. The covariation experiments used the same range of substrate concentrations across an activator and inhibitor concentration range. The data obtained from these experiments was fit to the nonessential activator and mixed-model inhibition equation, respectively.

Series [5] concerns the target T1, TrBgl2. The experiment in a line: STD NMR ligand-observed binding. Particulars: compound 500 µM, TrBgl2 20 µM; for binding to TrBgl2 by STD NMR: absence of isofagomine; for binding to TrBgl2 by STD NMR in presence of isofagomine: isofagomine 40 µM. On the procedure:
The samples contained 20 µM unlabelled TrBgl2, fragments at a concentration of 500 µM per compound and 100 µM sodium trimethylsilylpropanesulfonate (DSS) in 50 mM phosphate buffer containing 25 mM NaCl and 5% D2O at pH 6.0. The experiments were recorded by using a Bruker standard pulse sequence (stddiffesgp.3 [19]). The on-resonance frequency was set to 0.25 ppm and off-resonance irradiation was applied at 40 ppm. STD NMR spectra were collected with a total of 16 scans (NS), 5 s delay between the scans (d1), a saturation time of 4 s (d20) and 1.5 s acquisition time (AQ).

In series [6] the target is T1, TrBgl2. In words: Protein-observed NMR chemical shift perturbation (1H-15N TROSY). It counts as binding. As to conditions: compound 8 mM (8 also 16 mM), 15N TrBgl2 120 µM. On the procedure:
For backbone chemical shift perturbations (CSPs), each sample was prepared with 120 µM ^15N isotope-labelled TrBgl2 or E367Q TrBgl2, 8 mM or 16 mM of compound 8 or 10, 5 mM of MUG substrate and 100 µM DSS in 50 mM TRIS buffer containing 100 mM NaCl and 10% D2O at pH 8.0. The final DMSO concentration was usually not above 3.8%(v/v). ^1H-^15N TROSY spectra of the enzyme with DMSO in the buffer were collected as controls. ^1H-^15N TROSY spectra were collected by using a Bruker standard pulse sequence (trosyetf3gpsi) with 128 scans (NS), 1.5 s delay between the scans (d1), 35 ppm spectra width (SW), 256-time domain data size (TD) and 117 ppm irradiation carrier frequency offset (O1P).
For IVL methyl group CSPs, each sample was prepared with 250 µM of ^15N, ^13C, ^2H and IVL methyl group specifically labelled TrBgl2, 8 mM of compound 8, in 50 mM TRIS buffer containing 100 mM NaCl and 10% D2O at pH 8.0. The final DMSO concentration was usually not above 3.8% (v/v). ^1H-^13C HSQC spectra of the enzyme with DMSO in the buffer were collected as controls. ^1H-^13C HSQC spectra were recorded by using a Bruker standard pulse sequence (hsqcctetgpsp) with 8 scans (NS), 1.5 s delay between the scans (d1), 30 ppm spectra width (SW), 256-time domain data size (TD) and 15 ppm irradiation carrier frequency offset (O1P).

In series [7] the test system is CcBglA. The experiment in a line: MUG cleavage assay on CcBglA (selectivity). It counts as biochemical, Clostridium cellulovorans. As to conditions: MUG 500 µM, titration 63 µM to 8 mM. Here is the method:
as §1

[8] abbreviates: pH 6, titration of compound from 63 µM to 8 mM, substrate conc. 500 µM, read-out: Amax.
Setting [9] is: titration of compound from 63 µM to 8 mM, substrate conc. 500 µM.
The mark [10] stands for this setting: E367Q TrBgl2 in the presence of MUG (4 mM), compound 4 mM.
Where [11] appears, read: apo E367Q TrBgl2, compound 4 mM, without MUG.
Where [12] appears, read: pH 6, titration of compound from 30 µM to 3.8 mM, substrate conc. 500 µM, read-out: Amax.
Setting [13] is: titration of compound from 30 µM to 3.8 mM, substrate conc. 500 µM.

Structures are written as SMILES. “And” between values parts separate entries of the source, which are not always exact repeats. Equal entries are not always repeated. Where two headings read alike, the source gives them in different places. Bounds are passed on as bounds.

Broadly, the AC50 is the concentration giving half of the maximal activity seen. Turning to `COc1ccccc1NC(=S)N1CCOCC1` [Compound 6], in series [1] (setting [8]), the Emax worked out at 143%. For the same molecule, the AC50 in series [1] (setting [9]) is more than 4000 µM.
The solubility is the dissolved amount per volume that the medium holds. Low readings indicate little dissolved substance, high ones much dissolved substance. In turn, `CCN(CCO)C(=S)Nc1c(C)cccc1C` [Compound 8] came in with a solubility in series [2] not above 16 mM. The “increase of Tm” value in series [3] (setting [10]) was approximately 1.2 °C. In addition, in series [3] (setting [11]), the “decrease of Tm” value is approximately 1 °C. The Emax in series [1] (setting [8]) is not above 188%. In series [1] (setting [9]), this molecule returned an AC50 of more than 4000 µM. In addition, in series [4] (covariation fit, MUG substrate), the “α modifier (nonessential activator model)” value stood at 0.64 and the “β modifier (nonessential activator model, modifies kcat)” value is listed as 1.5. In addition, the “enhancement of substrate affinity” value in series [4] (in the presence of activator) is listed as “approximately 1.5 fold”. Further, in series [5], the “binding to TrBgl2 by STD NMR” value was “clear signal intensity” and the “binding to TrBgl2 by STD NMR in presence of isofagomine” value (“binding to TrBgl2 … of isofagomine” below) is recorded as “clear signal intensity”. In addition, in series [6], the “amide chemical shift changes on addition of compound (1H-15N TROSY)” value is given as “indicating a specific binding event”.
Consider `Cc1ccc(C)c(NC(=S)N2CCOCC2)c1` [Compound 5], for which, in series [1] (setting [12]), the Emax amounted to 160%. The same molecule had an AC50 in series [1] (setting [13]) of more than 4000 µM.
In the case of `Cc1cccc(C)c1NC(=S)N1CCOCC1` [Compound 1], the AC50 in series [1] (MUG substrate 500 μM) is 1000 µM and ~1000 µM. Besides, in series [1] (MUG substrate 500 μM, read-out: Amax (maximal activation obtained)), the Emax is approximately 155%. For the same molecule, the “improvement in kcat/KM” value in series [4] (Michaelis-Menten analysis, MUG, in presence of 1 (3 mM) vs absence) is “approximately 2 fold”. Besides, in series [5], the “binding to TrBgl2 by STD NMR” value is recorded as “showed evidence of binding” and the “binding to TrBgl2 … of isofagomine” value is “binding was also observed”.
On to `Cc1ccccc1NC(=S)N1CCOCC1` [Compound 4], for which the Emax in series [1] (setting [12]) came out at 139%. Further, the AC50 in series [1] (setting [13]) stood at 1810 ± 96 µM.
In general, IC50 refers to the concentration at which inhibition is half-maximal. The low end stands for inhibition by little substance, the high end for a need for much substance. As a reminder, the inhibition is how much of the control response was suppressed. With `S=C(Nc1ccc2nccnc2c1)N1CCOCC1` [Compound 10], in series [7], the “inhibition of CcBglA” value is given as “inhibited both enzymes to a similar degree”. For the same molecule, the “decrease of Tm” value in series [3] (setting [10]) was approximately 4 °C. Besides, the “decrease of Tm” value in series [3] (setting [11]) is approximately 4 °C. The IC50 in series [1] (setting [9]) was 312 ± 32 µM. The inhibition in series [1] (titration of compound from 63 µM to 8 mM, substrate conc. 500 µM, read-out: Maximum inhibition) worked out at 96%. Besides, in series [4] (covariation fit, MUG substrate), the “α modifier (reversible mixed inhibition model)” value was 3.65. Further, in series [5], the “binding to TrBgl2 by STD NMR” value is “clear signal intensity” and the “binding to TrBgl2 … of isofagomine” value was “clear signal intensity”. In addition, the “amide chemical shift changes on addition of compound (1H-15N TROSY)” value in series [6] is on record as “smaller but similar changes as seen for 8”.
In series [1] (inhibition of TrBgl2, MUG substrate), `OC[C@H]1CNC[C@@H](O)[C@@H]1O` [isofagomine, reference compound] had an IC50 of 0.53 ± 0.12 µM.
As to `S=C(Nc1ccccc1Cl)N1CCOCC1` [Compound 3], the Emax in series [1] (setting [12]) amounted to 155%. In addition, the AC50 in series [1] (setting [13]) is more than 4000 µM.
In the case of `Cc1cccc(C)c1NC(=S)N1CCCCC1CO` (centres unmarked) [Compound 7], the Emax in series [1] (setting [8]) worked out at 161%. The AC50 in series [1] (setting [9]) was 1530 ± 312 µM.
For the molecule `Cc1cccc(C)c1NC(=S)NCCO` [Compound 9], the Emax in series [1] (setting [12]) worked out at 128%. For the same molecule, in series [1] (setting [13]), the AC50 is more than 4000 µM.

Source of the values: publication PMC7702302, “Fragment-derived modulators of an industrial β-glucosidase” (Biochemical Journal, 2020).
